Literature values, collected in patent US12130296B2, “Method for the direct detection and/or quantification of at least one compound with a molecular weight of at least 200” (SANIFIT THERAPEUTICS S.A., priority 2011, dated 2024).

Conditions: 12 dissociable protons; Carbohydr Res 46, 159-171; 1976

For O=P(O)(O)O[C@H]1[C@H](OP(=O)(O)O)[C@@H](OP(=O)(O)O)[C@H](OP(=O)(O)O)[C@@H](OP(=O)(O)O)[C@H]1OP(=O)(O)O [inositol hexaphosphate], the pKa values is given as “from negative values to more than 10”.
